In PubChem BioAssay (NCI):
Values joined by “and” are separate entries in the source; they are usually repeats but may differ in a detail not shown here. Equal entries are not always repeated.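 Cultured in 96-well plates, cells were exposed to test compound for 48 hours across five concentrations. GI50 is the concentration that inhibits growth by half. Definition used: TGI = concentration required for complete inhibition of growth.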

What was measured:
Assay in all cases: inhibition of tumour cell growth, NCI panel, 48 h
[1] = tested on: 786-0 renal
[2] = tested on: A498 renal
[3] = tested on: A549 NSCLC
[4] = tested on: ACHN renal
[5] = tested on: BT-549 breast
[6] = tested on: CAKI-1 renal
[7] = tested on: CCRF-CEM leukemia
[8] = tested on: COLO 205 colon
[9] = tested on: DU-145 prostate
[10] = tested on: EKVX NSCLC
[11] = tested on: HCC-2998 colon
[12] = tested on: HCT-116 colon
[13] = tested on: HCT-15 colon
[14] = tested on: HL-60(TB) leukemia
[15] = tested on: HOP-62 NSCLC
[16] = tested on: HOP-92 NSCLC
[17] = tested on: HS 578T breast
[18] = tested on: HT29 colon
[19] = tested on: IGROV1 ovarian
[20] = tested on: K-562 leukemia
[21] = tested on: KM12 colon
[22] = tested on: LOX IMVI melanoma
[23] = tested on: M14 melanoma
[24] = tested on: MALME-3M melanoma
[25] = tested on: MCF7 breast
[26] = tested on: MDA-MB-231 breast
[27] = tested on: MDA-MB-435
[28] = tested on: MOLT-4 leukemia
[29] = tested on: NCI-H226 lung
[30] = tested on: NCI-H23 lung
[31] = tested on: NCI-H460 lung
[32] = tested on: NCI-H522 lung
[33] = tested on: NCI/ADR-RES ovarian
[34] = tested on: OVCAR-3 ovarian
[35] = tested on: OVCAR-4 ovarian
[36] = tested on: OVCAR-5 ovarian
[37] = tested on: OVCAR-8 ovarian
[38] = tested on: PC-3 prostate
[39] = tested on: RPMI-8226 leukemia
[40] = tested on: RXF 393 renal
[41] = tested on: SF-268 CNS
[42] = tested on: SF-295 CNS
[43] = tested on: SF-539 CNS
[44] = tested on: SK-MEL-2 melanoma
[45] = tested on: SK-MEL-28 melanoma
[46] = tested on: SK-MEL-5 melanoma
[47] = tested on: SK-OV-3 ovarian
[48] = tested on: SN12C renal
[49] = tested on: SNB-19 CNS
[50] = tested on: SNB-75 CNS
[51] = tested on: SR leukemia
[52] = tested on: SW-620 colon
[53] = tested on: T-47D breast
[54] = tested on: TK-10 renal
[55] = tested on: U251 CNS
[56] = tested on: UACC-257 melanoma
[57] = tested on: UACC-62 melanoma
[58] = tested on: UO-31 renal

CCS(=O)(=O)c1cccc(-c2cc(C(=O)NC3CCN(C)CC3)c(C)c3[nH]c4ncc(C)cc4c23)c1
GI50 [1]: 1680 nM and 1320 nM
TGI [1]: > 8050 nM and 4700 nM
GI50 [2]: 453 nM and 124 nM
TGI [2]: 1650 nM and 790 nM
GI50 [3]: 490 nM and 169 nM
TGI [3]: 4120 nM and 3790 nM
GI50 [4]: 9870 nM and 2640 nM
TGI [4]: > 10000 nM and 10600 nM
GI50 [5]: 1750 nM and 875 nM
TGI [5]: 5840 nM and 2200 nM
GI50 [6]: 1350 nM and 6410 nM
TGI [6]: > 6290 nM and 36400 nM
GI50 [7]: 101 nM and 82.2 nM
TGI [7]: > 10000 nM and 38100 nM
GI50 [8]: 92.3 nM and 31.8 nM
GI50 [9]: 1210 nM and 745 nM
TGI [9]: 3480 nM and 2350 nM
GI50 [10]: 1330 nM and 898 nM
TGI [10]: > 10000 nM and 11000 nM
GI50 [11]: 177 nM and 703 nM
TGI [11]: 2140 nM and 4180 nM
GI50 [12]: 128 nM and 78.8 nM
TGI [12]: 2660 nM and 5400 nM
GI50 [13]: 13600 nM
TGI [13]: > 10000 nM and 45800 nM
GI50 [14]: 179 nM and 442 nM
TGI [14]: 4220 nM and 3970 nM
GI50 [15]: 645 nM and 266 nM
TGI [15]: > 6560 nM and 2010 nM
GI50 [16]: 120 nM and 88.7 nM
TGI [16]: 595 nM and 330 nM
GI50 [17]: 275 nM and 109 nM
TGI [17]: 2600 nM and 424 nM
GI50 [18]: 372 nM and 236 nM
TGI [18]: > 8440 nM and 10300 nM
GI50 [19]: 179 nM and 111 nM
TGI [19]: 1760 nM and 2550 nM
GI50 [20]: 210 nM and 90 nM
TGI [20]: > 10000 nM and 11000 nM
GI50 [21]: 95.4 nM and 47.8 nM
TGI [21]: 1510 nM and 1860 nM
GI50 [22]: 168 nM and 160 nM
TGI [22]: 1220 nM and 747 nM
GI50 [23]: 1150 nM and 967 nM
TGI [23]: > 8780 nM and 6730 nM
GI50 [24]: 843 nM and 571 nM
TGI [24]: 4130 nM and 3220 nM
GI50 [25]: 105 nM and 63.1 nM
TGI [25]: 4270 nM and 5960 nM
GI50 [26]: 232 nM and 196 nM
TGI [26]: > 5150 nM and 4900 nM
GI50 [27]: 722 nM and 304 nM
TGI [27]: > 10000 nM and 4540 nM
GI50 [28]: 316 nM and 237 nM
TGI [28]: > 6380 nM and 3140 nM
GI50 [29]: 372 nM and 714 nM
TGI [29]: 3830 nM and 5200 nM
GI50 [30]: 483 nM and 322 nM
TGI [30]: 5230 nM and 3750 nM
GI50 [31]: 201 nM and 84.3 nM
TGI [31]: 4960 nM and 1640 nM
GI50 [32]: 148 nM and 164 nM
TGI [32]: 2270 nM and 1680 nM
GI50 [33]: 44900 nM
TGI [33]: > 100000 nM
GI50 [34]: 336 nM and 232 nM
TGI [34]: 2480 nM and 1410 nM
GI50 [35]: 1040 nM and 249 nM
TGI [35]: > 7710 nM and 4390 nM
GI50 [36]: 463 nM and 340 nM
TGI [36]: > 9670 nM and 11400 nM
GI50 [37]: 1580 nM and 855 nM
TGI [37]: > 10000 nM and 11100 nM
GI50 [38]: 374 nM and 104 nM
TGI [38]: 5850 nM and 4710 nM
GI50 [39]: 736 nM and 929 nM
TGI [39]: > 7510 nM and 9070 nM
GI50 [40]: 957 nM and 512 nM
TGI [40]: 3110 nM and 1560 nM
GI50 [41]: 332 nM and 245 nM
TGI [41]: 2190 nM and 1100 nM
GI50 [42]: 1080 nM and 832 nM
TGI [42]: > 10000 nM and 5630 nM
GI50 [43]: 329 nM and 239 nM
TGI [43]: 1920 nM and 1390 nM
GI50 [44]: 694 nM and 673 nM
TGI [44]: 3070 nM and 3380 nM
GI50 [45]: 834 nM and 566 nM
TGI [45]: 6530 nM and 5090 nM
GI50 [46]: 2290 nM and 798 nM
TGI [46]: > 9220 nM and 2650 nM
GI50 [47]: 624 nM and 771 nM
TGI [47]: 4310 nM and 7310 nM
GI50 [48]: 283 nM and 272 nM
TGI [48]: 3880 nM and 11300 nM
GI50 [49]: 302 nM and 250 nM
TGI [49]: > 10000 nM and 6670 nM
GI50 [50]: 101 nM and 80.4 nM
TGI [50]: 459 nM and 264 nM
GI50 [51]: 68.2 nM and < 24.6 nM
TGI [51]: 2140 nM and 1580 nM
GI50 [52]: 268 nM and 143 nM
TGI [52]: > 10000 nM and 1850 nM
GI50 [53]: 277 nM and 204 nM
TGI [53]: 4120 nM and 3160 nM
GI50 [54]: 1710 nM and 1440 nM
TGI [54]: > 8010 nM and 6700 nM
GI50 [55]: 537 nM and 316 nM
TGI [55]: 5160 nM and 2350 nM
GI50 [56]: 1260 nM and 562 nM
TGI [56]: 6790 nM and 4670 nM
GI50 [57]: 452 nM and 372 nM
TGI [57]: 2130 nM and 2090 nM
GI50 [58]: > 5300 nM and 6650 nM
TGI [58]: > 10000 nM and 26400 nM
